Test results as given in ChEMBL document CHEMBL1127142, “Novel conversion reaction of -lactam to -lactam. Synthesis of -lactam analogs of penam and penem antibiotics” (Bioorg Med Chem Lett, 1993).
The source made the active and inactive calls. The rule behind the calls is not given here.

Legend:
[1] = system: Bacteria; experiment: Activity of compound tested against Gram negative bacteria at concentration of 100 ug/ml; Inactive; assay type: functional, organism-based
[2] = Activity of compound tested against Gram positive bacteria at concentration of 100 ug/ml; Inactive; assay type: functional

| SMILES | Activity [1] | Activity [2] |
| --- | --- | --- |
| O=C(O)C1=C([C@H]2CCCO2)S[C@@H]2[C@@H](C(=O)NCc3ccccc3)CC(=O)N12 | inactive | inactive |
| O=C(O)C1=C([C@H]2CCCO2)S[C@@H]2[C@H](C(=O)O)CC(=O)N12 | inactive | inactive |
| O=C(O)C1=C(C2CCCO2)S[C@@H]2[C@@H](C(=O)O)CC(=O)N12 (stereo partly drawn) | inactive | inactive |
| CC1(C)S[C@@H]2[C@@H](C(=O)NCc3ccccc3)CC(=O)N2[C@H]1C(=O)O | inactive | inactive |
